Data from patent US20100216120A1, “Rapid infectious virus assay” (priority 2009, published 2010).

Assays:
[1] = tested on: infectious HIV from monocytes; test: ATP-triggered release of infectious virus from CD8-depleted PBMC monocytes, TZM reporter cell luciferase readout, no fibronectin coating; assay type: cell-based, Human Immunodeficiency Virus (HIV); details: ATP 1-5 mM, absence of fibronectin coating, 200 k CD8-depleted PBMCs, 3 days; HIV-positive vs negative individuals
Method: ATP (1 mM) was then added in a volume of 100 ul for a 3 hrs at 37° C. TZMs (10K) were then added on to the wells in 100 ul in RPMI 10%. After 3 days later, the supernatants were removed and steady-glo reagent was added on to the TZMs and read on a Spectramax.
The inventors tested the ability of ATP (1-5 mM) to release infectious virus from monocytes in absence of fibronectin coating on to the tissue culture wells. […] Further differentiation and/or activation is useful to enhance virus release.

[2] = tested on: infectious HIV from monocytes; test: Rapid Infectious Viral Assay (RIVA): virus release from monocytes on fibronectin-coated wells, TZM-bl reporter cell luciferase readout; assay type: cell-based, Human Immunodeficiency Virus (HIV); details: ATP 1 mM
Method: The plates were then coated with fibronectin and BSA. 150 k CD8-depleted PBMCs were added on to a 96-well for 3 hrs followed by washings using RPMI 10%. ATP (1 mM) was then added in a volume of 100 ul for a 3 hrs at 37° C. TZMs (15K) were then added on to the wells the next day. 5 days later after launch, the supernatants were removed and steady-glo reagent was added on to the TZMs and read on a Spectramax.
ATP (1 mM) was then added in a volume of 100 ul for a 3 hrs at 37° C. TZMs (10K) were then added on to the wells. 4 days later after launch, the supernatants were removed and steady-glo reagent was added on to the TZMs and read on a Spectramax.
ATP (1 mM) was then added in a volume of 100 ul for a 3 hrs at 37° C. TZMs (10K) were then added on to the wells. 3 days later after launch, the supernatants were removed and steady-glo reagent was added on to the TZMs and read on a Spectramax.
ATP (1 mM) was then added in a volume of 100 ul for a 3 hrs at 37° C. TZMs (20K) were then added on to the wells. 3 days later after launch, the supernatants were removed and steady-glo reagent was added on to the TZMs and read on a Spectramax.
In a preferred embodiment, CD8-depleted PBMC were isolated from HIV-negative donors and HIV patients with VL<50 copies/ml using Dynal beads. Peripheral monocytes (CD14) were used in a rapid infectious assay using TZM-bl coculture technique. The inventors compare this shorter infection assay to classical method of PBMC activation with anti CD3/CD28 antibodies. Major CCR5 blockers were addressed. Presence of infectious virus was also investigated using FACS and rtPCR.
FIG. 2 illustrates a test of the ability of ATP (1 mM) to release infectious virus from monocytes in presence of fibronectin coating on to the tissue culture wells. The HIV infectivity was measured by measuring the RLU on a Spectramax M5 plate readert.
1. A 96 well plate (a 48 well can be used) is coated with 100 ul RPMI containing fibronectin (50 ug/ml) in BSA (0.5%) for 30 minutes at room temperature.
2. CD8-depleted PBMC's which have been frozen at 2 million cells per ml and stored at −80 C in 22% FBS and 10% DMSO are thawed quickly and about 100 ul containing 200 k cells are added to the wells immediately
3. Let cells of interest attach for 2 hours (longer even overnight up to 20 hrs can be used)
4. Remove all the media which contains non-adherent cells and wash with 200 ul of RPMI with 10% FBS, pipetting gently, removing this wash media. The adherent monocytes remain.
5. […]
7. Finally quantitate how much viral infection has occurred by reading luciferase production using Steady Glow reagent (Promega) and a luminometer/spectrophotometer. […]

Nc1ncnc2c1ncn2[C@@H]1O[C@H](COP(=O)(O)OP(=O)(O)OP(=O)(O)O)[C@@H](O)[C@H]1O [ATP]
release of infectious virus from monocytes (RLU on TZMs) [1]: incapable of triggering release of viral particles from monocytes
release of infectious virus from monocytes (RLU on TZMs) ([2]; fibronectin and BSA coating, 100 k CD8-depleted PBMCs O/N, 3-day assay (Format #3)): triggers the release of the virus
release of infectious virus from monocytes (RLU on TZMs) ([2]; fibronectin and BSA coating, 100 k CD8-depleted PBMCs O/N, 4-day assay (Format #2)): triggers the release of the virus
release of infectious virus from monocytes (RLU on TZMs) ([2]; fibronectin and BSA coating, 225 k cells, 48-well, 4-day assay (Format #4)): triggers the release of the virus
release of infectious virus from monocytes (RLU on TZMs) ([2]; fibronectin coating, 150 k CD8-depleted PBMCs, 5 day assay (Format #1)): capable of triggering release of viral particles from monocytes
